The results in this text go back to patent US20050234046A1 (Kalypsys, Inc., priority 2004, published 2005).

What all share (experiment): Transient transfection (transactivation) assay in CV-1 cells, GAL4-PPAR chimera, luciferase reporter
What all share (type): cell-based
For orientation: A reporter such as luciferase makes a cellular process visible.

In one experiment the target is T1, PPAR delta (Homo sapiens, UniProt Q03181).
T1 construct: expressed in transfected cells; host or cells: CV-1 cells
T1 sequence (Q03181 211-439 limits assumed): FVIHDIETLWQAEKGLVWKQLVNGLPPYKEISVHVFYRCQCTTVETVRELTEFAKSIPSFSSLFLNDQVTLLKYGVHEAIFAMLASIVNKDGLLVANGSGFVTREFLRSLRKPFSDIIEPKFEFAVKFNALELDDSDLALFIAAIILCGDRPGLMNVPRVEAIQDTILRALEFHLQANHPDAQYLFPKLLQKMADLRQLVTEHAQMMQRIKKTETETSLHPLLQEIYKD

A further experiment concerns the target T2, PPAR gamma (Homo sapiens, UniProt P37231).
T2 construct: expressed in transfected cells; host or cells: CV-1 cells
T2 sequence (P37231 238-503 limits assumed): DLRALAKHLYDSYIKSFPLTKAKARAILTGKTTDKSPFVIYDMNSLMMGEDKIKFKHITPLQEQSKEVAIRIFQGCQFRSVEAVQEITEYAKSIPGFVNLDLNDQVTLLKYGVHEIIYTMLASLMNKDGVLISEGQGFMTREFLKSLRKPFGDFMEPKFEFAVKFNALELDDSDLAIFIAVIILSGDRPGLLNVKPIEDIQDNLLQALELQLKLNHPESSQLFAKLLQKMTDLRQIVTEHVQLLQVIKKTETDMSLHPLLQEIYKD

The target of the next experiment is T3, PPAR alpha (Homo sapiens, UniProt Q07869).
T3 construct: expressed in transfected cells; host or cells: CV-1 cells
T3 sequence (Q07869 239-466 limits assumed): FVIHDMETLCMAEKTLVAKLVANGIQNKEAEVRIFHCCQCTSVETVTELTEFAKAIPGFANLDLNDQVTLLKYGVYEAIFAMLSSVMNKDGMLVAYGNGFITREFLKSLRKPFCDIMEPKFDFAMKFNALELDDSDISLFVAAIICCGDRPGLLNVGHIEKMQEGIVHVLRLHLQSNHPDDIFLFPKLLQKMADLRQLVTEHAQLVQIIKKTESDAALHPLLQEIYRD
An outline of the steps:
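EC50 and efficacy come from a luciferase read-out after 20-24 hours of compound exposure (vehicle 1% DMSO) in transiently transfected CV-1 cells. These cells express a GAL4-PPAR ligand-binding-domain chimera plus a reporter with four or five GAL4 binding sites, and are kept in phenol-red free DME with 5% delipidated calf serum.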

The structures appear in SMILES notation.

Source text for PPAR gamma: Compounds may be screened for functional potency in transient transfection assays in CV-1 cells or other cell types for their ability to activate the PPAR subtypes (transactivation assay). A previously established chimeric receptor system was utilized to allow comparison of the relative transcriptional activity of the receptor subtypes on the same synthetic response element and to prevent endogenous receptor activation from complicating the interpretation of results. […] The ligand binding domains for murine and human PPAR-alpha, PPAR-gamma, and PPAR-delta are each fused to the yeast transcription factor GAL4 DNA binding domain. CV-1 cells were transiently transfected with expression vectors for the respective PPAR chimera along with a reporter construct containing four or five copies of the GAL4 DNA binding site driving expression of luciferase. After 8-16 h, the cells are replated into multi-well assay plates and the media is exchanged to phenol-red free DME medium supplemented with 5% delipidated calf serum. 4 hours after replating, cells were treated with either compounds or 1% DMSO for 20-24 hours. Luciferase activity was then assayed with Britelite (Perkin Elmer) following the manufacturer's protocol and measured with either the Perkin Elmer Viewlux or Molecular Devices Acquest Xsee, for example, Kliewer, S. A., et. al. Cell 1995, 83, 813-819). Rosiglitazone is used as a positive control in the hPPAR-γ assay. Wy-14643 and GW7647 is used as a positive control in the hPPAR-α assay. GW501516 is used as the positive control in the hPPAR-δ assay.

A word on the EC50: it is the concentration giving half of the maximal effect. With `Cc1ccc(S(=O)(=O)N2CCN(c3ccc(C(F)(F)F)cn3)C(C(F)(F)F)C2)cc1CC(=O)O` (stereo not drawn) [Example 205, {2-Methyl-5-[3-trifluoromethyl-4-(5-trifluoromethyl-pyridin-2-yl)-piperazine-1-sulfonyl]-phenyl}-acetic acid], the EC50 on PPAR delta was under 5 µM; at PPAR gamma it was 5 to 100 µM; on PPAR alpha it was 5 to 100 µM.
Consider `COc1ccc(S(=O)(=O)N2[C@H](C)CN(c3ccc(OC(F)(F)F)cn3)C[C@@H]2C)cc1CC(=O)O` [Example 206, {5-[2,6-Dimethyl-4-(5-trifluoromethoxy-pyridin-2-yl)-piperazine-1-sulfonyl]-2-methoxy-phenyl}-acetic acid], for which the EC50 at PPAR delta is under 5 µM; at PPAR gamma, 5 to 100 µM; at PPAR alpha, over 100 µM.
For `O=C(O)Cc1cc(S(=O)(=O)N2CCN(c3ccc(C(F)(F)F)cn3)CC2)ccc1O` [Example 207, {5-[4-(5-trifluoromethyl-pyridin-2-yl)-piperazine-1-sulfonyl]-2-hydroxy-phenyl}-acetic acid] the same measures were under 5 µM, 5 to 100 µM and 5 to 100 µM.
For `O=C(O)Cc1cc(S(=O)(=O)N2CCN(c3ccc(C(F)(F)F)cc3)CC2)ccc1O` [Example 208, {5-[4-(4-trifluoromethyl-phenyl)-piperazine-1-sulfonyl]-2-hydroxy-phenyl}-acetic acid] the same measures were under 5 µM, over 100 µM and 5 to 100 µM.
The matching figures for `C[C@@H]1CN(c2ccc(OC(F)(F)F)cc2)C[C@H](C)N1S(=O)(=O)c1ccc(O)c(CC(=O)O)c1` [Example 209, {5-[2,6-Dimethyl-4-(4-trifluoromethoxy-phenyl)-piperazine-1-sulfonyl]-2-hydroxy-phenyl}-acetic acid]: 5 to 100 µM, over 100 µM and over 100 µM.
Turning to `O=C(O)CSCc1cccc(S(=O)(=O)N2CCN(c3ccc(C(F)(F)F)cc3)CC2)c1` [Example 210, {3-[4-(4-Trifluoromethyl-phenyl)-piperazine-1-sulfonyl]-benzylsulfanyl}-acetic acid], the EC50 at PPAR delta, at PPAR gamma and on PPAR alpha was 5 to 100 µM in each case.
`O=C(O)COCc1cccc(S(=O)(=O)N2CCN(c3ccc(C(F)(F)F)cc3)CC2)c1` [Example 211, {3-[4-(4-Trifluoromethyl-phenyl)-piperazine-1-sulfonyl]-benzyloxy}-acetic acid]: the EC50 at PPAR delta, on PPAR gamma and at PPAR alpha was over 100 µM each time.
With `CC(C)(OCc1cccc(S(=O)(=O)N2CCN(c3ccc(C(F)(F)F)cc3)CC2)c1)C(=O)O` [Example 212, 2-Methyl-2-{3-[4-(4-trifluoromethyl-phenyl)-piperazine-1-sulfonyl]-benzyloxy}-propionic acid], the EC50 at PPAR delta was over 100 µM; on PPAR gamma, 5 to 100 µM; at PPAR alpha, 5 to 100 µM.
Regarding `Cc1cc(CC(=O)O)cc(S(=O)(=O)N2CCN(c3ccc(OC(F)(F)F)cc3)C[C@@H]2C)c1` [Example 213, {3-Methyl-5-[2-(S)-methyl-4-(4-trifluoromethoxy-phenyl)-piperazine-1-sulfonyl]phenyl}-acetic acid], the values for the EC50 at PPAR delta, on PPAR gamma and at PPAR alpha were under 5 µM, 5 to 100 µM and 5 to 100 µM, respectively.
Take `Cc1ccc(S(=O)(=O)N2CCN(c3ccc(OC(F)(F)F)cc3)C[C@@H]2C)cc1CC(=O)O` [Example 214, {2-Methyl-5-[2-(S)-methyl-4-(4-trifluoromethoxy-phenyl)-piperazine-1-sulfonyl]-phenyl}-acetic acid]: the EC50 is under 5 µM on PPAR delta, 5 to 100 µM at PPAR gamma and 5 to 100 µM at PPAR alpha.
Regarding `C[C@H]1CN(c2ccc(C(F)(F)F)c(F)c2)CCN1S(=O)(=O)c1cccc(CC(=O)O)c1` [Example 215, {3-[4-(3-Fluoro-4-trifluoromethyl-phenyl)-2-(S)-methyl-piperazine-1-sulfonyl]-phenyl}-acetic acid], the EC50 on PPAR delta was under 5 µM; at PPAR gamma, 5 to 100 µM; on PPAR alpha it was 5 to 100 µM.
Take `Cc1cc(CC(=O)O)cc(S(=O)(=O)N2CCN(c3ccc(C(F)(F)F)c(F)c3)C[C@@H]2C)c1` [Example 216, {3-[4-(3-Fluoro-4-trifluoromethyl-phenyl)-2-(S)-methyl-piperazine-1-sulfonyl]-5-methyl-phenyl}-acetic acid]: the values for the EC50 on PPAR delta, at PPAR gamma and at PPAR alpha were under 5 µM, 5 to 100 µM and 5 to 100 µM, respectively.
`Cc1ccc(S(=O)(=O)N2CCN(c3ccc(C(F)(F)F)c(F)c3)C[C@@H]2C)cc1CC(=O)O` [Example 217, {5-[4-(3-Fluoro-4-trifluoromethyl-phenyl)-2-(S)-methyl-piperazine-1-sulfonyl]-2-methyl-phenyl}-acetic acid]: the results for the EC50 on PPAR delta, at PPAR gamma and at PPAR alpha were under 5 µM, 5 to 100 µM and 5 to 100 µM, respectively.
Consider `C[C@H]1CN(S(=O)(=O)c2cccc(CC(=O)O)c2)CCN1c1ccc(C(F)(F)F)c(F)c1` [Example 218, {3-[4-(3-Fluoro-4-trifluorometbyl-phenyl)-3-(S)-methyl-piperazine-1-sulfonyl]-phenyl}-acetic acid], for which the EC50 at PPAR delta is under 5 µM; on PPAR gamma, 5 to 100 µM; on PPAR alpha, under 5 µM.
In the case of `Cc1cc(CC(=O)O)cc(S(=O)(=O)N2CCN(c3ccc(C(F)(F)F)c(F)c3)[C@@H](C)C2)c1` [Example 219], the EC50 on PPAR delta was under 5 µM; at PPAR gamma, 5 to 100 µM; at PPAR alpha it was 5 to 100 µM.
Take `C[C@@H]1CN(c2ccc(C(F)(F)F)cn2)C[C@H](C)N1S(=O)(=O)c1cccc(CC(=O)O)c1` [Example 220, {3-[2,6-Dimethyl-4-(5-trifluoromethyl-pyridin-2-yl)-piperazine-1-sulfonyl]-phenyl}-acetic acid]: the EC50 at PPAR delta was under 5 µM; at PPAR gamma, over 100 µM; on PPAR alpha, 5 to 100 µM.
For `C[C@H]1CN(S(=O)(=O)c2cccc(CC(=O)O)c2)CCN1c1ccc(OC(F)(F)F)cc1` [Example 221, {3-[3-(s)-Methyl-4-(4-trifluoromethoxy-phenyl)-piperazine-1-sulfonyl]-phenyl}-acetic acid] the same measures were under 5 µM, 5 to 100 µM and 5 to 100 µM.
Take `Cc1cc(CC(=O)O)cc(S(=O)(=O)N2[C@H](C)CN(c3ccc(C(F)(F)F)c(F)c3)C[C@@H]2C)c1` [Example 222]: the figures for the EC50 at PPAR delta, at PPAR gamma and at PPAR alpha were under 5 µM, over 100 µM and 5 to 100 µM, respectively.
The matching figures for `Cc1cc(CC(=O)O)cc(S(=O)(=O)N2CCN(c3ccc(OC(F)(F)F)cc3)CC2)c1` [Example 223, {3-Methyl-5-[4-(4-trifluoromethoxy-phenyl)-piperazine-1-sulfonyl]-phenyl}-acetic acid]: under 5 µM, 5 to 100 µM and 5 to 100 µM.
For the compound `Cc1cc(CC(=O)O)cc(S(=O)(=O)N2CCN(c3ccc(OC(F)(F)F)cc3)[C@@H](C)C2)c1` [Example 224, {3-Methyl-5-[3-(s)-methyl-4-(4-trifluoromethoxy-phenyl)-piperazine-1-sulfonyl]-phenyl}-acetic acid], the EC50 on PPAR delta was under 5 µM; at PPAR gamma it was 5 to 100 µM; at PPAR alpha it was 5 to 100 µM.
With `Cc1cc(CC(=O)O)cc(S(=O)(=O)N2CCN(c3ccc(C(F)(F)F)cn3)CC2)c1` [Example 225], the EC50 is under 5 µM at PPAR delta, under 5 µM on PPAR gamma and 5 to 100 µM at PPAR alpha.
Turning to `C[C@H]1CN(c2ccc(OC(F)(F)F)cc2)CCN1S(=O)(=O)c1cccc(CC(=O)O)c1` [Example 226, {3-[2-(s)-Methyl-4-(4-trifluoromethoxy-phenyl)-piperazine-1-sulfonyl]-phenyl}-acetic acid], the results for the EC50 at PPAR delta, on PPAR gamma and on PPAR alpha were under 5 µM, 5 to 100 µM and 5 to 100 µM, respectively.
As for `C[C@@H]1CN(S(=O)(=O)c2cccc(CC(=O)O)c2)C[C@H](C)N1c1ccc(C(F)(F)F)cn1` [Example 227, 2-(3-(-3,5-Dimethyl-4-(5-(trifluoromethyl)pyridine-2-yl)piperazin-1-ylsulfonyl)phenyl)acetic acid], the values for the EC50 on PPAR delta, at PPAR gamma and at PPAR alpha were under 5 µM, under 5 µM and 5 to 100 µM, respectively.
For `Cc1cc(CC(=O)O)cc(S(=O)(=O)N2C[C@@H](C)N(c3ccc(C(F)(F)F)cn3)[C@@H](C)C2)c1` [Example 228, 2-(3-(-3,5-Dimethyl-4-(5-(trifluoromethyl)pyridine-2-yl)piperazin-1-ylsulfonyl)-5-methylphenyl)acetic acid], the EC50 on PPAR delta was under 5 µM; at PPAR gamma, under 5 µM; on PPAR alpha, 5 to 100 µM.
